# Conditions: buffer; pH 7.4; 200.0 µM
row,SMILES,solubility kinetic
1,CC(C)(C)C(O)(CC#CCN1CCCC1)c1ccccc1.Cl (centres undefined),> 48.3 µg/mL
2,C[C@]12CS(=O)(=O)C[C@H]1SC(=S)N2c1ccccc1,> 44.9 µg/mL
3,O=C(COC(=O)c1ccc(F)cc1F)Nc1ncccn1,> 44 µg/mL
4,Cc1ccccc1NC(=O)NC1(C(=O)N2CCC(O)CC2)CCCCC1,44.1 µg/mL
5,Cc1ccc(OCCn2cnc(Cl)c2Cl)cc1,31.7 µg/mL
6,C(CNC1C2CC3CC(C2)CC1C3)CN1CCOCC1.Cl (centres undefined),> 52.7 µg/mL
7,COCC(C)NC(=O)c1ccc2nc(-c3ccccc3)c(-c3ccccc3)nc2c1 (centres undefined),5.3 µg/mL
8,OC(CN1CCC(c2c[nH]c3ccccc23)CC1)C(F)(F)F (centres undefined),> 46.9 µg/mL
9,CCc1ccc2oc(C(=O)Nc3nonc3CC)c(C)c2c1,< 0.2 µg/mL
10,COCCNC(=S)Nc1ccc([N+](=O)[O-])cc1C,> 40.4 µg/mL
11,C/C(CCC1CC(C)OC1=O)=N\NC(N)=S (centres undefined),> 36.5 µg/mL
12,O=S(=O)(NC1C2CC3CC(C2)CC1C3)c1ccccc1 (centres undefined),23.4 µg/mL
13,CC(NC(=S)Nc1cccc(C(F)(F)F)c1)C(C)(C)C (centres undefined),4.6 µg/mL
14,COc1ccccc1N1CCN(c2cnccn2)CC1,> 40.6 µg/mL
15,COc1cc2nc(CN3CCN(S(=O)(=O)c4cc(C)ccc4C)CC3)[nH]c(=O)c2cc1OC,9.7 µg/mL
16,COC(=O)CC1C(=O)NCCN1C(=O)c1cc([N+](=O)[O-])ccc1Cl (centres undefined),52.9 µg/mL
17,COc1ccc(/C=C2\SC(N3CCCCC3)=NC2=O)cc1OC,8.2 µg/mL
18,O=C1Nc2ccc(Cl)cc2C12OCCCO2,3.2 µg/mL
19,O=C(Nc1ccc2c(c1)OCCO2)c1cccc(Br)c1,3.2 µg/mL
20,C=CCOCC(O)Cn1c(N2CCCC2)nc2c1c(=O)[nH]c(=O)n2C (centres undefined),> 52.4 µg/mL

row,SMILES,solubility kinetic
1,COCc1cc(=O)[nH]c(N2CCN(c3ccccc3OC)CC2)n1,46.3 µg/mL
2,O=C1N=c2ccccc2=C1c1sc(=O)[nH]c1O,> 36.9 µg/mL
3,O=C(NCc1ccccc1CN1CCCC1)c1cc2ccccc2o1,> 50.2 µg/mL
4,CCc1cccc(NS(=O)(=O)c2ccc3c(c2)n(C)c(=O)n3C)c1,3.4 µg/mL
5,Cc1cnc(NC(=O)CCN2C(=O)C3CCCCC3C2=O)s1 (centres undefined),39.3 µg/mL
6,O=C(c1ccc2ncsc2c1)N1CCCC(C(F)(F)F)C1 (centres undefined),> 47.1 µg/mL
7,Cc1ccc(C)c(S(=O)(=O)Nc2cc(C)on2)c1,> 39.9 µg/mL
8,CCCCCC(=O)Oc1cccc(N2C(=O)C3CCCCC3C2=O)c1 (centres undefined),4.3 µg/mL
9,O=C(Nc1ccccn1)c1ccc2c(=O)n3c(nc2c1)CCCCC3,> 50.2 µg/mL
10,NC(=O)C1CCN(C(=O)CCSCc2ccccc2)CC1,> 46 µg/mL
11,Cn1cccc1-c1nc2ccc([N+](=O)[O-])cc2[nH]1,15.2 µg/mL
12,CC1(C)CC(NC(=O)Cc2ccccc2)CC(C)(C)N1.Cl,> 46.6 µg/mL
13,CCOc1ccccc1C(=O)NCC(=O)NCC1CCCCC1,5.6 µg/mL
14,COC(=O)COc1ccc(S(=O)(=O)N2CCCCCC2)cc1C,39.3 µg/mL
15,COc1ccc(CCC(C)N2CCOCC2)cc1 (centres undefined),31.9 µg/mL
16,C/C(=N/OC(=O)C1CC1c1ccccc1)c1ccccc1 (centres undefined),3.6 µg/mL
17,Cc1cccc(NC(=O)COC(=O)c2cccs2)c1C,1.8 µg/mL
18,O=C1CCc2cc(S(=O)(=O)NC3CCCCC3)ccc2N1,> 46.3 µg/mL
19,CC(=O)Nc1ccc(C(=O)COC(=O)CCN2C(=O)C3CC=CCC3C2=O)cc1 (centres undefined),> 59.8 µg/mL
20,Cc1cccc(NC(=O)C(=O)NCCCN2CCOCC2)c1,41.9 µg/mL

row,SMILES,solubility kinetic
1,Cn1c(SCC(=O)NC2CCCC2)nnc1C(F)(F)F,> 46.2 µg/mL
2,O=C(COC(=O)c1cccc(OC(F)F)c1)NCC1CCCO1 (centres undefined),> 49.4 µg/mL
3,Cc1ccc2nc(Cl)c(/C=C/C(=O)c3ccco3)cc2c1,15.4 µg/mL
4,CCSc1nc(NCCN(C)C)c2c3c(sc2n1)COC(C)(CC)C3 (centres undefined),46.4 µg/mL
5,COc1cccc2cc(C(=O)Nc3ccccc3C)/c(=N/O)oc12,4.6 µg/mL
6,O=C(COC(=O)C1CC2C=CC1C2)Nc1ccccc1F (centres undefined),> 43.4 µg/mL
7,COc1ccc(CNC(=O)CSc2nc(SC)ns2)cc1,26.4 µg/mL
8,Cc1ccc(S(=O)(=O)NC(=O)Nc2cccc(S(=O)(=O)N(C)C)c2)cc1,> 59.6 µg/mL
9,COC(=O)c1ccc(S(=O)(=O)N2CCC(O)CC2)n1C,> 45.4 µg/mL
10,O=C(CCC(=O)N1CCN(S(=O)(=O)c2ccc([N+](=O)[O-])cc2)CC1)N1CCOCC1,> 66.1 µg/mL
11,O=C(NC1CCCCC1)C1CCCN1C(=O)Nc1ccccc1 (centres undefined),> 47.3 µg/mL
12,CN1C(=O)c2ccc(C(=O)NCc3ccccn3)cc2C1=O,> 44.3 µg/mL
13,O=c1ccc(-c2nc3ccccc3n2Cc2ccc(Cl)cc2)c[nH]1,38.7 µg/mL
14,COc1ccc(Cl)cc1C(=O)N1CCN(Cc2ccc3c(c2)OCO3)CC1,47.4 µg/mL
15,COc1ccccc1CNCc1cc(=O)oc2c(C)c(C)ccc12,3.6 µg/mL
16,C=CCOc1c(Cl)cc(CNc2nccs2)cc1OC,38.1 µg/mL
17,O=C(O)c1ccc(N=Cc2c(O)[nH]c(=O)[nH]c2=O)cc1,> 41.3 µg/mL
18,COCCn1c(C)cc(C(=O)COC(=O)/C=C/c2ccc(OC)cc2OC)c1C,2.7 µg/mL
19,Cc1cc(C)cc(NC(=O)Cn2cc(C=O)c3ccccc32)c1,< 0.3 µg/mL
